Values quoted from earlier work in US20040242457A1, “Use of anti-glaucoma drugs to treat visual defects associated with the use of a GABAergic agent” (priority 2003, published 2004).

Settings: reports from the literature

Structure (SMILES): C=CC(N)CCC(=O)O (racemic) [GVG, 4-amino-hex-5-enoic acid]
- patients treated with GVG who develop visual field defects (VFDs): 25-50%
